Assay [1] concerns INS-1 832/13 cells. As to the kind of experiment: glucose dependent insulin secretion (GDIS) assay in INS-1 832/13 cells. Type of assay: cell-based, rat. As to conditions: 16 mM glucose, two-hour incubation in KRB. The text has this: We overexpressed the precursors of miR-132 and miR-212 to evaluate their possible contribution to β-cell function. MicroRNA miR-375 was included as a control as it been reported to have an inhibitory effect on GDIS (Poy et al., Nature 432: 226-230 (2004)). Chemically modified Pre-miR™ miRNA precursor molecules and Anti-miR™ miRNA inhibitors were purchased from Ambion (Foster City, Calif.). miRCURY LNA™ microRNA knockdown oligonucleotides were purchased from Exiqon (Woburn, Mass.). The oligonucleotide molecules were delivered to the cells by the Nucleofector Device (Amaxa, Gaithersburg, Md.). In brief, INS-1 cells were trypsinized, centrifuged, and resuspended in 100 μl Nucleofector solution V. Then 100-500 pmole RNA oligonucleotides were transfected to 3-million cells at the concentration of 1-5 μM with the Amaxa Nucleofector Device. Scramble controls from the vendors were used with the same transfection method. After electroporation, the cells were transferred to regular culture medium and then split into replicates in 96-well plates. Insulin secretion assay or LANCE cAMP assay were performed 48 hours post electroporation.
INS-1 cell glucose dependent insulin secretion (GDIS) assay was performed as follows. The GDIS assay was performed with cells grown to near confluency in 96-well plates. Prior to the assay, cells were washed once with PBS and pre-incubated for two hours in freshly prepared Krebs-Ringer Bicarbonate (KRB) medium without glucose. The medium were then replaced with KRB with 2, 8 or 16 mM glucose or along with 10 nM GLP-1. The cells were incubated for another two hours in a CO2 incubator. The media was then removed at the end of incubation, and assayed for insulin levels by Ultra-sensitive Rat Insulin ELISA kit (ALPCO, Salem, N.H.) or insulin immunoassay by Gyrolab workstation (GYROS AB, Uppsala, Sweden). Intracellular insulin was extracted by acid ethanol method for measuring intracellular insulin content. Total protein was measured by Pierce 660 nm Protein Assay from Pierce Biotechnology, Inc. (Rockford, Ill.).

The subject of a further assay is INS-1 832/3 cells. As to the kind of experiment: TAQMAN real-time quantitative RT-PCR of miRNA expression in INS-1 832/3 cells. Type of assay: cell-based, rat. The protocol: (§1) INS-1 832/3 and 832/13 cells were maintained in RPMI 1640 with 10% FBS and 11 mM glucose. For GLP-1 treatment, GLP-1 (7-37) amide (ABCHEM) was added in the media in the presence of 16 mM glucose for 24 hours. Total RNA was extracted with TRIZOL as in Example 1. Rat islet isolation and treatment was as follows. Pancreatic islets of Langerhans were isolated from the pancreas of normal Sprague-Dawley rats (Charles River, Ind.) by collagenase digestion and discontinuous Ficoll gradient separation (15). Islets were cultured for 2 hours in RPMI 1640 medium with 11 mM glucose for recovery from the isolation process. Then 100-200 islets were treated with 50 nM GLP-1 in the media with 11 mM glucose for 24 hours. RNA was extracted with TRIZOL as in Example 1 for quantification of microRNA species.
Fluorogenic TAQMAN detector probes specific for miR-132 (Cat# TM457), miR-212 (Cat# TM515), miR-375 (Cat#TM564), and miR-217 (Cat#1133) were purchased from Applied Biosystems (Foster City, Calif.). The TAQMAN RT-PCR reactions were performed according to the manufacturer's instructions.
Relative miRNA levels for the miRNAs of interest were determined by real-time reverse transcription reaction using the ABI PRISM 7900 Sequence Detection System from Applied Biosystems (Foster City, Calif.) according to the manufacturer's protocol. Briefly, 10 ng of total RNA was mixed with 1 U MultiScribe Reverse Transcriptase, 0.25 U RNase Inhibitor, 3 μL hairpin-looped miRNA-specific RT primer, 1 mM dNTPs and 1× Reverse Transcription Buffer in a total volume of 15 μL. The mixture was incubated at 16° C. for 30 minutes, 42° C. for another 30 minutes, and the reaction was stopped by heating to 85° C. for 5 minutes. Real time PCR reaction was set up in 20 μL volume with 1.33 μL first strand cDNA, 1× TAQMAN MicroRNA Assay Mix and 1× TAQMAN Universal PCR Master Mix. After activation of the AMPLITAQ Gold DNA polymerase at 95° C. for 10 minutes, 40 cycles of two-step PCR were run (95° C. for 15 seconds and 60° C. for 60 seconds). Data were collected and analyzed with SDS v.2.2.2 software (Applied Biosystems). 4.5S RNA or U6 probe (Applied Biosystems) was used as a reference to determine the relative abundance of each miRNA in different samples. TAQMAN RT-PCR was performed according the manufacturer's instructions.
The absolute miRNA levels were determined by reverse transcription reactions in GeneAmp PCR system 9700 followed by amplification using the ABI PRISM 7900HT Sequence Detection System from Applied Biosystems (Foster City, Calif.) through 40 cycles. 4.5S RNA (H) probe (Cat#TM1716) or U6 (Cat#TM1973) was used as reference to determine the relative abundance of each miRNA in different samples. The induction of miR-132 and miR-212 expression by GLP-1 started around 4 hour post-GLP-1 treatment, peaked at 24 hours and was sustained up to 48 hours (FIG. 2).
On the technique in general: Quantitative PCR measures a nucleic acid by following its amplification.

The subject of assay [2] is INS-1 832/13 cells. Kind of assay: TAQMAN analysis of miRNA expression in INS-1 832/13 cells. Type of assay: cell-based, rat. The note with it: 24 hours post-GLP-1 treatment. The protocol: as §1
Fluorogenic TAQMAN detector probes specific for miR-132 (Cat# TM457), miR-212 (Cat# TM515), miR-375 (Cat#TM564), and miR-217 (Cat#1133) were purchased from Applied Biosystems (Foster City, Calif.). […]
Relative miRNA levels for the miRNAs of interest were determined by real-time reverse transcription reaction using the ABI PRISM 7900 Sequence Detection System from Applied Biosystems (Foster City, Calif.) according to the manufacturer's protocol. […] Data were collected and analyzed with SDS v.2.2.2 software (Applied Biosystems). […]

The next assay deals with rat pancreatic islets. As to the kind of experiment: miRNA expression in isolated rat islets (TAQMAN). Type of assay: cell-based. The note with it: 50 nM GLP-1, 11 mM glucose, 24 hours. As to the method:
as §1
To verify that GLP-1 mediated miR-212 and miR-132 expression changes are of biological relevance, we analyzed their expression in freshly isolated rat islets treated with GLP-1. Pancreatic islets of Langerhans were isolated from the pancreas of normal Sprague-Dawley rats (Charles River, Ind.) by collagenase digestion and discontinuous Ficoll gradient separation. Islets were cultured for two hours in RPMI 1640 medium with 11 mM glucose for recovery from the isolation process. Then 100 to 200 islets were treated with 50 nM GLP-1 in the media with 11 mM glucose for 24 hours. RNA was extracted with TRIZOL reagent/ethanol precipitation followed by quantification of miRNA species. […] The regulation of miR-132 and miR-212 expression by GLP-1 was confirmed in rat pancreatic islets.

Setting [3] is: 50 nM GLP-1, 50 nM Exendin-4, 5 μM IBMX, 1 μM Foskolin (FIG. 6A).

Regarding GLP-1 (7-37) amide, in the assay with INS-1 832/13 cells [1], the “increase of insulin secretion upon treatment with GLP-1” value is recorded as “less than 50%”. Also, in the assay on INS-1 832/3 cells (setting [3]), the miR-132 expression entry is given as “significantly increased”, the miR-212 expression entry is “significantly increased” and the miR-375 expression entry is listed as “remained unchanged”. Moreover, in the assay on INS-1 832/3 cells (50 nM GLP-1 time course), the “induction of miR-132 and miR-212 expression sustained up to” value was “up to 48 hours”; the “peak of induction of miR-132 and miR-212 expression” value turned out to be 24 h; the “start of induction of miR-132 and miR-212 expression, time post-GLP-1 treatment” value is “around 4 hour”. Further, in the assay with INS-1 832/3 cells (GLP-1 treatment), the “induction of miR-132 and miR-212 (subsequent TAQMAN analyses)” value is on record as “confirmed the induction”; the “induction of miR-217 (subsequent TAQMAN analyses)” value was “not miR-217”. In the assay on INS-1 832/13 cells [2], the “increase of miR-132 expression in response to GLP-1” value is “not observed” and the “increase of miR-212 expression in response to GLP-1” value is listed as “not observed”. Besides, in the assay with rat pancreatic islets, the “miR-132 expression level increased” value was determined as 2 fold; the “miR-212 expression level increased” value came to 2 fold; the “regulation of miR-375 and miR-217 expression” value is given as “Neither miR-375 nor miR-217 was significantly regulated”.

(Values after patent US20120034608A1, “MICRORNA AS A BIOMARKER OF PANCREATIC ISLET BETA-CELL ENGAGEMENT” (Merck Sharp & Dohme Corp., priority 2009, published 2012).)
